Where two headings read alike, the source gives them in different places.
Experiments:
[1] = molecular target: T1, muscarinic receptor M5 (Homo sapiens, UniProt P08912); assay: Muscarinic receptor subtype M5 binding assay, radioligand displacement; conditions: Ki values, receptor subtype M5, [3]H-methylscopolamine displacement, membranes from recombinant mammalian cell lines
T1 construct: expressed in transfected cells
T1 sequence (P08912 1-532): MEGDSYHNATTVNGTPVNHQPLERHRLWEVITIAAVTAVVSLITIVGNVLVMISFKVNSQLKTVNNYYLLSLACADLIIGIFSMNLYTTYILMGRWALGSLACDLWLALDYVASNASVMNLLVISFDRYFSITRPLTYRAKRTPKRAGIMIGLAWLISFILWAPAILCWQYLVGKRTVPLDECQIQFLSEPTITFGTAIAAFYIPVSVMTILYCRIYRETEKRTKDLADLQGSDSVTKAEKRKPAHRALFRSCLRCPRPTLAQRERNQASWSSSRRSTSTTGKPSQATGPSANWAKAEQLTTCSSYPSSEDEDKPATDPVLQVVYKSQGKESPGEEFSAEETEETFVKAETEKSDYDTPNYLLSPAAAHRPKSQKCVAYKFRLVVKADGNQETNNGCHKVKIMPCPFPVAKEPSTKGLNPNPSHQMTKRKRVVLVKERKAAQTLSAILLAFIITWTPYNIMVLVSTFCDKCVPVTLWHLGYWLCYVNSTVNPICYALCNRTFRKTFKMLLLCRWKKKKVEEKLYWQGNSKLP
Procedure: (§1) Muscarinic receptor subtype M1-M5 binding assays were carried out. Briefly, [3]H-methylscopolamine was allowed to bind to membranes from various recombinant mammalian cell lines, each with an over-expression of a particular receptor subtype.
(§2) Muscarinic receptor subtype M1-M5 binding assays were performed.

[2] = molecular target: T2, muscarinic receptor M3 (Homo sapiens, UniProt P20309); assay: Muscarinic receptor subtype M3 binding assay, radioligand displacement; conditions: Ki values, receptor subtype M3
T2 construct: expressed in transfected cells
T2 sequence (P20309 whole entry): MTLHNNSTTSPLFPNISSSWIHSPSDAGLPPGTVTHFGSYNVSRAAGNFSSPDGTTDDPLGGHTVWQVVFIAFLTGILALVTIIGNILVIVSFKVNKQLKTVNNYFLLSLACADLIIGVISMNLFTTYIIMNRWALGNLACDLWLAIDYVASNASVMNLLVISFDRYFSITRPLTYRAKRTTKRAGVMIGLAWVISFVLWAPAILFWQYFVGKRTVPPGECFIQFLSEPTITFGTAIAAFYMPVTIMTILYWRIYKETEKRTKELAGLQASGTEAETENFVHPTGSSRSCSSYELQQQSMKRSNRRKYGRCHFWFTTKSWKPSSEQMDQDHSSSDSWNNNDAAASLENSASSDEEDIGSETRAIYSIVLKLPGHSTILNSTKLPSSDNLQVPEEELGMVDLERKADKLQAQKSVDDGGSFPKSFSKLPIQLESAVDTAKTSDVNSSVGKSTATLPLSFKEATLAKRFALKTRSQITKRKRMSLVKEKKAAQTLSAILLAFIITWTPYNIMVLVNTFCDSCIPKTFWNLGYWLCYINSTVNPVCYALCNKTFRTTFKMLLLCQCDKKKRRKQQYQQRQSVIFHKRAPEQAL
Procedure: as §1, §2

[3] = molecular target: T3, muscarinic receptor M4 (Homo sapiens, UniProt P08173); assay: Muscarinic receptor subtype M4 binding assay, radioligand displacement
T3 construct: expressed in transfected cells
T3 sequence (P08173 1-479): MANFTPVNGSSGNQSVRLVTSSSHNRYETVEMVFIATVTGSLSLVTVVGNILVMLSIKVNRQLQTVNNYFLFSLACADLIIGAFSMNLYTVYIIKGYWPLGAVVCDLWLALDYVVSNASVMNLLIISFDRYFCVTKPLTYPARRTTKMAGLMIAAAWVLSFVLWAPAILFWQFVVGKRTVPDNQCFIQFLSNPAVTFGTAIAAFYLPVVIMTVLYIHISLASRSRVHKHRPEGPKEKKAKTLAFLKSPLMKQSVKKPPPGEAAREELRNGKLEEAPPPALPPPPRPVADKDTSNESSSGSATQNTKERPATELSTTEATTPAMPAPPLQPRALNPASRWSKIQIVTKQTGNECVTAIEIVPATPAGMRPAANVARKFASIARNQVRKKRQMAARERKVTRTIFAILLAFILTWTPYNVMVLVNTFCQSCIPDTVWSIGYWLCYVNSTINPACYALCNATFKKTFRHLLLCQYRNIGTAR
Procedure: as §1, §2

[4] = molecular target: T4, muscarinic receptor M2 (Homo sapiens, UniProt P08172); assay: Muscarinic receptor subtype M2 binding assay, radioligand displacement
T4 construct: expressed in transfected cells
T4 sequence (P08172 1-466): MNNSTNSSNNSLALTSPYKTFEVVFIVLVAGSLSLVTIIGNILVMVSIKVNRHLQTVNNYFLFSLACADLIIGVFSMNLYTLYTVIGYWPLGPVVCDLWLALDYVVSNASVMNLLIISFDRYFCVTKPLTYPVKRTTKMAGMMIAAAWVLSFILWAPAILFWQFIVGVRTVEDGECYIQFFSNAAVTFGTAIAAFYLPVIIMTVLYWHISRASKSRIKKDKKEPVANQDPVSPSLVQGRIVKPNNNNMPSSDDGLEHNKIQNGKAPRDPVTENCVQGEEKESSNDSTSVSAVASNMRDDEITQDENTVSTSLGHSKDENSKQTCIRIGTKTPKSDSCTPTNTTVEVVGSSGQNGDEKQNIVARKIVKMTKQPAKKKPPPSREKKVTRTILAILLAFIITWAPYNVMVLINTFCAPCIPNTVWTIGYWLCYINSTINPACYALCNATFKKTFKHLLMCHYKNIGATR
Procedure: as §1, §2

[5] = test system: methacholine-induced bronchoconstriction in Balb/c mice; assay: Bronchodilatory effect of inhaled compounds, Example II (10 min to 48 h)
Procedure: Female BALB/c mice, weight range 19-22 g, were obtained from Charles River Laboratories (Kingston, N.C.). They received food and water ad libitum.
Compounds for aerosol administration were prepared in sterile Dulbecco's Phosphate Buffered Saline.
Mice were placed in a carousel-style, nose only, exposure chamber and allowed to inhale aerosols for five minutes, using an ICN SPAG-2 nebulizer.
Bronchoconstriction was induced in mice by administration of an 80 mg/ml methacholine (MC) aerosol into the plethysmograph chambers for 5 minutes. […] The average enhanced pause (lung resistance) was determined. In order to determine the baseline, saline aerosol (without methacholine) was also separately administered to the mice.

[6] = molecular target: T5, muscarinic receptor M1 (Homo sapiens, UniProt P11229); assay: Muscarinic receptor subtype M1 binding assay, radioligand displacement
T5 construct: expressed in transfected cells
T5 sequence (P11229 1-460): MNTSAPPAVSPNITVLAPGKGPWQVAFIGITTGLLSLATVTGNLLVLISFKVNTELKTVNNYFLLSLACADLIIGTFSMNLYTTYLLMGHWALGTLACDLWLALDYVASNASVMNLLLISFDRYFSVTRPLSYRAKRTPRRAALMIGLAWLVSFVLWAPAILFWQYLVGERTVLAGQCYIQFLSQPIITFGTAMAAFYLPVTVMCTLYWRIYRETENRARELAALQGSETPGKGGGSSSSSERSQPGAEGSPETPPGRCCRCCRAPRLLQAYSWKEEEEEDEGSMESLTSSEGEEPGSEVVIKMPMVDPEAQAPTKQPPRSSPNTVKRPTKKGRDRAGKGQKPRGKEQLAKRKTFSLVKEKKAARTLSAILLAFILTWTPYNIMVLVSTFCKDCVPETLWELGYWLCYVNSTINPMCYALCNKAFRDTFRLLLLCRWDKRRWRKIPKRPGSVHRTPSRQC
Procedure: as §1, §2

[7] = Pharmacokinetics of inhaled quaternary ammonium salts, plasma levels; assay type: in vivo, Balb/c mice
Procedure: Blood samples were taken from the mice in example II via cardiac puncture under isoflurane anesthesia at 2.5 minutes, 10 minutes, 30 minutes, 2 hours, 4 hours, 8 hours, or 12 hours after aerosol drug treatment.
The samples were collected in tubes containing EDTA and centrifuged at 12000×g for four minutes. Plasma was removed and stored at −70° C. until assay.
Plasma samples were extracted via a liquid/liquid extraction technique. […] Chromatographically, the analyte and the internal standard were resolved on a Phenomenex Phenyl-Hexyl column using an isocratic elution. The limit of quantitation was 24 pg/ml.

[8] = Balb/c, mouse, plasma, inhaled, inhalation of 0.072 mg/ml, read-out: Plasma concentration ± std dev
[9] = Balb/c, mouse, plasma, inhaled, inhalation of 0.144 mg/ml, read-out: Plasma concentration ± std dev
[10] = Balb/c, mouse, plasma, inhaled, inhalation of 1.44 mg/ml, read-out: Plasma concentration ± std dev

Cc1ccc(O)c([C@H](CC[N+](C)(C(C)C)C(C)C)c2ccccc2)c1.[I-] [Example 2]
Ki [1]: 0.25 nM
Ki [2]: 0.2 nM
Ki [3]: 0.39 nM
Ki [4]: 0.45 nM
prevention of methacholine-induced bronchoconstriction, time following administration ([5]; inhalation of aerosol from 0.072 mg/ml solution, FIG. 3): 8 h
prevention of methacholine-induced bronchoconstriction, time following administration ([5]; inhalation of aerosol from 0.144 mg/ml solution, FIG. 2): 24 h
complete block of methacholine-induced bronchoconstriction, time following administration ([5]; inhalation of aerosol from 1.44 mg/ml solution, FIG. 1): 36 h
Ki [6]: 0.33 nM
concentration at 2.5 min [7, 8]: 0.136 ± 0.038 ng/mL
concentration at 10 min [7, 8]: 0.09 ± 0.001 ng/mL
concentration at 30 min [7, 8]: 0.081 ± 0.008 ng/mL
concentration at 2 h [7, 8]: 0.041 ± 0.006 ng/mL
concentration at 4 h [7, 8]: 0.014 ± 0.001 ng/mL
concentration at 2.5 min [7, 9]: 0.264 ± 0.021 ng/mL
concentration at 10 min [7, 9]: 0.162 ± 0.011 ng/mL
concentration at 30 min [7, 9]: 0.112 ± 0.01 ng/mL
concentration at 2 h [7, 9]: 0.055 ± 0.007 ng/mL
concentration at 4 h [7, 9]: 0.04 ± 0.003 ng/mL
concentration at 8 h [7, 9]: 0.012 ± 0.001 ng/mL
concentration at 2.5 min [7, 10]: 2.68 ± 0.389 ng/mL
concentration at 10 min [7, 10]: 1.4 ± 0.163 ng/mL
concentration at 30 min [7, 10]: 1.12 ± 0.042 ng/mL
concentration at 2 h [7, 10]: 0.245 ± 0.003 ng/mL
concentration at 4 h [7, 10]: 0.157 ± 0.002 ng/mL
concentration at 8 h [7, 10]: 0.08 ± 0.002 ng/mL
concentration at 12 h ([7]; Balb/c, mouse, plasma, inhaled, inhalation of 1.44 mg/ml, 12 h, read-out: Plasma concentration ± std dev): 0.042 ± 0.002 ng/mL
systemic (plasma) exposure ([7]; after aerosol inhalation of 0.072-1.44 mg/ml): very low
